In US20260130933A1, “PHARMACEUTICAL COMPOSITION FOR PREVENTION OR TREATMENT OF NEPHROPATHY AND/OR DIABETES MELLITUS, COMPRISING ENAVOGLIFLOZIN” (DAEWOONG PHARMACEUTICAL CO., LTD., priority 2022, published 2026):

Assay: Example 4: subgroup of patients with proteinuria (baseline UACR of 30 to 3500 g/kg) of Examples 1 to 3, percent change in UACR at week 24
Type: in vivo, human
Conditions: for UACR decrease at week 24 compared to baseline: proteinuria subgroup
From the text: Among the patient groups that received the test drugs and the control drug of Examples 1 to 3, a group of patients with proteinuria (baseline UACR of 30 to 3500 g/kg) was additionally analyzed.
Among the patients in Example 1, a subgroup with baseline UACR of 30 to 3500 g/kg was classified as a group of patients with proteinuria.
Among the patients in Example 2, a subgroup with the baseline UACR of 30 to 3500 g/kg was classified as a group of patients with proteinuria.
Similarly, among the patients in Example 3, a subgroup with the baseline UACR of 30 to 3500 g/kg was classified as a group of patients with proteinuria.

[1] = week 24, Example 2 (with metformin), per-protocol set, UACR 30-3500 g/kg at baseline
[2] = week 24, Example 3 (with metformin and gemigliptin), per-protocol set, UACR 30-3500 g/kg baseline
[3] = week 24, Example 1 (monotherapy), full analysis set, UACR 30-3500 g/kg at baseline

Compound	Percent change from baseline in UACR, Mean [1] [%]	Percent change from baseline in UACR, Median [1] [%]	UACR, Mean [1] [g/kg]	UACR, Median [1] [g/kg]	Percent change from baseline in UACR, Mean [2] [%]	Percent change from baseline in UACR, Median [2] [%]	UACR, Mean [2] [g/kg]	UACR, Median [2] [g/kg]	UACR decrease at week 24 compared to baseline (dual combination therapy with metformin) [%]	UACR decrease at week 24 compared to baseline (enavogliflozin administered alone) [%]	UACR decrease at week 24 compared to baseline (triple combination therapy with metformin and gemigliptin) [%]	UACR change, decrease compared to the dapagliflozin-administered patient group (two studies (Examples 2 and 3) combined) [%]	Percent change from baseline in UACR, Difference (enavogliflozin 0.3 mg − Placebo) [3] [%]	Percent change from baseline in UACR, Mean [3] [%]	Percent change from baseline in UACR, Median [3] [%]	UACR, Mean [3] [g/kg]	UACR, Median [3] [g/kg]	Percent change from baseline in UACR, Difference (enavogliflozin 0.3 mg − dapagliflozin 10 mg) [1] [%]	Percent change from baseline in UACR, Difference (enavogliflozin 0.3 mg − dapagliflozin 10 mg) [2] [%]
CCOc1ccc(Cc2cc([C@@H]3O[C@H](CO)[C@@H](O)[C@H](O)[C@H]3O)ccc2Cl)cc1 [Dapagliflozin, reference compound]	−26.01	−39.48	93.37	45.70	−13.09	−39.84	80.60	43.10											
OC[C@H]1O[C@@H](c2cc(Cc3ccc(C4CC4)cc3)c(Cl)c3c2CCO3)[C@H](O)[C@@H](O)[C@@H]1O [Enavogliflozin, (2S,3R,4R,5S,6R)-2-(7-chloro-6 (4-cyclopropylbenzyl)-2,3-dihydrobenzofuran-4-yl)-6-(hydroxymethyl)tetrahydro-2H-pyran-3,4,5-triol]	−47.35	−48.74	45.64	27.65	−36.03	−55.97	75.40	46.80	47.35	46.06	36.03	20.72	−50.89	−46.06	−64.48	70.29	26.05	−21.33	−22.94
